Where two headings read alike, the source gives them in different places. Where no end group is shown, it is not given here.
What was measured:
[1] = test system: human kidney cancer cell line (CAKI2); format: cell-based; conditions: human, 48 h
Method: The antitumor activity of each sample peptide synthesized in above-mentioned Test Example 1 was evaluated targeted in human-derived cultured tumor cells. More specifically, a human kidney cancer cell line (CAKI2) that is currently commercially available was used for the test tumor cells. CAKI2 cells were cultured and adjusted to cell count of about 5×10^3 cells per single well of 96-well plate. The amount of medium at this time was made to be 100 μL per well. Next, the 96-well plate was arranged in a CO2 incubator and incubated for about 1 day (21 hours to 24 hours) under conditions of 37° C. and 5% CO2. Subsequently, peptide-containing test media were respectively prepared for each concentration so that the concentration of each sample peptide targeted for evaluation was 12.5 μM and 25 μM followed by supplying to the wells in which the cells targeted for evaluation were cultured (namely, the wells following the above-mentioned incubation) so that the amount of media was 90 μL per well. The 96-well plate was then returned to CO2 incubator followed by incubating for 48 hours under conditions of 37° C. and 5% CO2. The number of wells (n) at each concentration in each peptide addition test group was set to 3. Thus, the values of the results indicated in the following table are the average values of the results respectively obtained for 3 test wells. Cell viability (%) was determined in the manner described below. Following completion of incubation for 48 hours as described above, the medium in each well was replaced with 100 μL of fresh medium not containing peptide followed by further adding a reagent for measuring cell proliferation in the form of “Cell Counting Kit-8” (Dojindo Laboratories) containing “water-soluble tetrazolium salt (WST-8)” as a coloring reagent at 10 μL per well. Subsequently, the 96-well plate was again returned to CO2 incubator and incubated for 1.5 hours to 2 hours under conditions of 37° C. and 5% CO2. Following completion of incubation, cell viability (%) was evaluated using a colorimetric method consisting of recovering the cell culture liquid containing the above-mentioned reagent together with measuring absorbance at wavelength of 450 nm based on reduction of tetrazolium salt (value corrected for absorbance at a wavelength of 650 nm: A450 to A650). More specifically, the cell viability (%) of each test cell line was calculated from the measured absorbance as a relative value based on cell viability of 100% for the measured value (measured absorbance) of the comparison test group that underwent incubation for 48 hours as described above in only medium not containing peptide. McCoy's 5A medium (Gibco) containing 2 mM L-glutamine, 3,000 mg/L of glucose, 100 units/mL of penicillin, 100 μg/mL of streptomycin and 10% fetal bovine serum (FBS).

tumor cells = assay: Antitumor activity of the TM2-TAT peptide (data not shown); format: cell-based; conditions: detailed data not shown

Compound	Cell Viability (%) ([1]; 12.5 μM)	Cell Viability (%) ([1]; 25 μM)	antitumor activity (tumor cells)
CC[C@H](C)[C@H](NC(=O)[C@H](CCCNC(=N)N)NC(=O)[C@H](CS)NC(=O)[C@H](Cc1ccc(O)cc1)NC(=O)[C@H](CC(C)C)NC(=O)[C@@H](NC(=O)[C@@H](NC(=O)[C@@H](NC(=O)[C@H](CO)NC(=O)[C@H](CC(C)C)NC(=O)[C@H](CC(C)C)NC(=O)[C@H](CC(C)C)NC(=O)[C@H](CC(C)C)NC(=O)[C@@H](NC(=O)[C@H](Cc1ccccc1)NC(=O)[C@@H](NC(=O)[C@@H](NC(=O)[C@@H](NC(=O)[C@H](CS)NC(=O)[C@H](Cc1ccccc1)NC(=O)[C@H](CC(C)C)NC(=O)[C@@H](NC(=O)[C@H](Cc1ccc(O)cc1)NC(=O)[C@H](Cc1c[nH]cn1)NC(=O)[C@H](CCCCN)NC(=O)[C@H](Cc1c[nH]cn1)NC(=O)[C@H](Cc1ccc(O)cc1)NC(=O)[C@@H](N)CC(C)C)[C@@H](C)CC)[C@@H](C)O)[C@@H](C)O)C(C)C)[C@@H](C)O)[C@@H](C)CC)C(C)C)[C@@H](C)CC)C(=O)N[C@@H](CCCCN)C(=O)N[C@@H](CCCCN)C(=O)N[C@@H](CCCNC(=N)N)C(=O)N[C@H](C(=O)N[C@@H](CC(C)C)C(=O)N[C@@H](CCCNC(=N)N)C(=O)N[C@@H](CCCCN)C(=O)N[C@@H](CC(N)=O)C(=O)N[C@@H](CC(=O)O)C(=O)N[C@@H](CCCNC(=N)N)C(=O)N[C@@H](CCCCN)C(=O)N[C@@H](CCCCN)C(=O)N[C@@H](CCCNC(=N)N)C(N)=O)[C@@H](C)O [Sample 5]	73.3%	77.6%	
FLLISACWVISLILGGLPIMGWKKRTLRKNDRKKR-NH2 [Sample 4]	70.6%	85.6%	
LFRAEYFLVLAVLNSGTNPIIKKRTLRKNDRKKR-NH2 [Sample 7]	98.9%	66.3%	
SEQ ID NO: 33: synthetic peptide binding SEQ ID NO: 23 (TAT sequence of HIV) to the C-terminal side of SEQ ID NO: 2 (S1PR1 second TM region) (FIGNLALSDLLAGVAYTANLLLRKKRRQRRR)			demonstrated antitumor activity
VIIVLSVFIACWAPLFILLLLKKRTLRKNDRKKR-NH2 [Sample 6]	69.3%	59.7%	
WFLREGSMFVALSASVFSLLAIKKRTLRKNDRKKR-NH2 [Sample 3]	68%	45.8%	
